Like-named read-outs stand apart in the source and are kept apart here.
Molecular target: Human VPS34 (Homo sapiens (Human), UniProt Q8NEB9)
Assay: Human VPS34 enzyme assay (Adapta TR-FRET)
Assay type: biochemical
Settings: read-out: Percent Inhibition

Sequence of Human VPS34 (Q8NEB9 whole entry): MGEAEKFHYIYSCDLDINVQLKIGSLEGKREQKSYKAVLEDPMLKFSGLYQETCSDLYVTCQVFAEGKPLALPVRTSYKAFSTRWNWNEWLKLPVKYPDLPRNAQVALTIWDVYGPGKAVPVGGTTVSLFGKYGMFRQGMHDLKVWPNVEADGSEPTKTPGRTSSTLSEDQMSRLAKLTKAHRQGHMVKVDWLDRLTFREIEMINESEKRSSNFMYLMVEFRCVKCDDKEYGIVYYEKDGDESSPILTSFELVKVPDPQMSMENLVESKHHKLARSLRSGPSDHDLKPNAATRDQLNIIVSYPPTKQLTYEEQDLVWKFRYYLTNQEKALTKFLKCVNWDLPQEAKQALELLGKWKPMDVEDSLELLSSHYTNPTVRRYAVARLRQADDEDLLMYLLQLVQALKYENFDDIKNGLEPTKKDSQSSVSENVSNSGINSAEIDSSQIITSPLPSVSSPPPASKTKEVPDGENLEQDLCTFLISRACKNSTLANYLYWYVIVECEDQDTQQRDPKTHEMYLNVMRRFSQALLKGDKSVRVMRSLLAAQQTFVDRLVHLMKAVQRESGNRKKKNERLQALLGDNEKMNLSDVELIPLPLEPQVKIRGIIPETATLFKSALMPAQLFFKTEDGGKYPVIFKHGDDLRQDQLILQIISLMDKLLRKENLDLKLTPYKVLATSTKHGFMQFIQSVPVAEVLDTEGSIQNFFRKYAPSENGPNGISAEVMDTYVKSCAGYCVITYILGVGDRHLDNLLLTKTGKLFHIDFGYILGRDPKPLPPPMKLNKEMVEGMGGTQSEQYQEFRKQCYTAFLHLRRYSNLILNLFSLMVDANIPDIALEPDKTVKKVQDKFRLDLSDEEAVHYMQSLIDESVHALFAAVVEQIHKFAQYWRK

Compound | inhibition at 1.11 µM (compound concentration 1.11 μM) [%] | inhibition at 1.11 µM [%]
CC(=O)Nc1cc(-c2cnc3[nH]cc(S(=O)(=O)N4CCCC4)c3c2)ccn1 [Compound I-158, N-{4-[3-(pyrrolidin-1-ylsulfonyl)-1H-pyrrolo[2,3-b]pyridin-5-yl]pyridin-2-yl}acetamide] | > 99 | 
COc1cc(F)c(S(=O)(=O)Nc2cc(-c3ccnc(NC(C)=O)c3)cnc2C)cc1F [Compound I-159, N-(5-{[(2,5-difluoro-4-methoxyphenyl)sulfonyl]amino}-6-methyl-3,4′-bipyridin-2′-yl)acetamide] | > 99 | 
CNc1ncc(-c2ccnc(NC(C)=O)c2)cc1C(=O)NC12CC(C1)C2 [Compound I-160, 2′-acetamido-N-(bicyclo[1.1.1]pent-1-yl)-6-(methylamino)-3,4′-bipyridine-5-carboxamide] | > 99 | 
CC(=O)Nc1cc(-c2cnc(N(C)C)c(C(=O)N(C)C)c2)ccn1 [Compound I-162, 2′-acetamido-6-(dimethylamino)-N,N-dimethyl-3,4′-bipyridine-5-carboxamide] | > 99 | 
CC(=O)Nc1cc(-c2cnc(F)c(NS(=O)(=O)c3ccc(F)cc3F)c2)ccn1 [Compound I-164, N-(5-{[(2,4-difluorophenyl)sulfonyl]amino}-6-fluoro-3,4′-bipyridin-2′-yl)acetamide] | > 99 | 
CC(=O)Nc1cc(-c2cnc(C)c(NS(C)(=O)=O)c2)ccn1 [Compound I-167, N-{6-methyl-5-[(methylsulfonyl)amino]-3,4′-bipyridin-2′-yl}acetamide] | > 99 | 
CC(=O)Nc1cc(-c2cnc(N)c(C(=O)NC3CC3)c2)ccn1 [Compound I-169, 2′-acetamido-6-amino-N-cyclopropyl-3,4′-bipyridine-5-carboxamide] | > 99 | 
CC(=O)Nc1cc(-c2cnc(N)c(S(=O)(=O)Cc3ccccc3Cl)c2)ccn1 [Compound I-172, N-{6-amino-5-[(2-chlorobenzyl)sulfonyl]-3,4′-bipyridin-2′-yl}acetamide] |  | > 99
CC(=O)Nc1cc(-c2cnc(N(C)C)c(C(=O)N(C)c3ccc(F)cc3F)c2)ccn1 [Compound I-174, 2′-Acetamido-N-(2,4-difluorophenyl)-6-(dimethylamino)-N-methyl-[3,4′-bipyridine]-5-carboxamide] | > 99 | 
CC(=O)Nc1cc(-c2cnc(N)c(S(=O)(=O)C(C)C)c2)ccn1 [Compound I-175, N-[6-amino-5-(isopropylsulfonyl)-3,4′-bipyridin-2′-yl]acetamide] | > 99 | 
CC(=O)Nc1cc(-c2cnc(C)c(NS(=O)(=O)c3cc(C)ccc3C)c2)ccn1 [Compound I-178, N-(5-{[(2,5-dimethylphenyl)sulfonyl]amino}-6-methyl-3,4′-bipyridin-2′-yl)acetamide] | > 99 | 
CC(=O)Nc1cc(-c2cnc(N)c(N3CCCS3(=O)=O)c2)ccn1 [Compound I-181, N-[6-amino-5-(1,1-dioxidoisothiazolidin-2-yl)-3,4′-bipyridin-2′-yl]acetamide] | > 99 | 
CC(=O)Nc1cc(-c2cnc(C)c(NS(=O)(=O)c3ccc(C)cc3F)c2)ccn1 [Compound I-182, N-(5-{[(2-fluoro-4-methylphenyl)sulfonyl]amino}-6-methyl-3,4′-bipyridin-2′-yl)acetamide] | > 99 | 
CC(=O)Nc1cc(-c2cnc(N)c(S(=O)(=O)N(C)C)c2)c(F)cn1 [Compound I-186] |  | > 99
CC(=O)Nc1cc(-c2cnc3[nH]ncc3c2)ccn1 [Compound I-189, N-[4-(1H-pyrazolo[3,4-b]pyridin-5-yl)pyridin-2-yl]acetamide] | > 99 | 
CC(=O)Nc1cc(-c2cncc(N3CCCS3(=O)=O)c2)ccn1 [Compound I-192, N-[5-(1,1-dioxidoisothiazolidin-2-yl)-3,4′-bipyridin-2′-yl]acetamide] | > 99 | 
CC(=O)Nc1cc(-c2cncc(C(C)=O)c2)ccn1 [Compound I-194, N-(5-acetyl-3,4′-bipyridin-2′-yl)acetamide] | 62 | 
COC(=O)Nc1cc(-c2cnc(C)c(NS(=O)(=O)c3ccc(F)cc3F)c2)ccn1 [Compound I-195, methyl (5-{[(2,4-difluorophenyl)sulfonyl]amino}-6-methyl-3,4′-bipyridin-2′-yl)carbamate] | > 99 | 
CC(=O)Nc1cc(-c2cnc(C)c(NS(=O)(=O)c3ccc(C(F)(F)F)cc3Cl)c2)ccn1 [Compound I-196, N-[5-({[2-chloro-4-(trifluoromethyl)phenyl]sulfonyl}amino)-6-methyl-3,4′-bipyridin-2′-yl]acetamide] | > 99 | 
CC(=O)Nc1cc(-c2cnc(N)c(S(=O)(=O)Cc3ccccc3F)c2)ccn1 [Compound I-197, N-{6-amino-5-[(2-fluorobenzyl)sulfonyl]-3,4′-bipyridin-2′-yl}acetamide] | > 99 | 
CC(=O)Nc1cc(-c2cncc(C(=O)/C=C/c3ccc(F)cc3)c2)ccn1 [Compound I-198, N-{5-[(2E)-3-(4-fluorophenyl)prop-2-enoyl]-3,4′-bipyridin-2′-yl}acetamide] | 68 | 
CC(=O)Nc1cc(-c2cnc3ccn(S(=O)(=O)C4CC4)c3c2)ccn1 [Compound I-199, N-{4-[1-(cyclopropylsulfonyl)-1H-pyrrolo[3,2-b]pyridin-6-yl]pyridin-2-yl}acetamide] | > 99 | 

Continued, in another order:

inhibition at 1.11 µM (compound concentration 1.11 μM) [%] | Compound | inhibition at 1.11 µM [%]
> 99 | CC(=O)Nc1cc(-c2cnc(C)c(NS(=O)(=O)c3ccc(F)cc3F)c2)c(F)cn1 [Compound I-161, N-(5-{[(2,4-difluorophenyl)sulfonyl]amino}-5′-fluoro-6-methyl-3,4′-bipyridin-2′-yl)acetamide] | 
> 99 | COc1ccc(S(=O)(=O)Nc2cc(-c3ccnc(NC(C)=O)c3)cnc2C)c(F)c1 [Compound I-163, N-(5-{[(2-fluoro-4-methoxyphenyl)sulfonyl]amino}-6-methyl-3,4′-bipyridin-2′-yl)acetamide] | 
> 99 | COc1ccc(S(=O)(=O)Nc2cc(-c3ccnc(NC(C)=O)c3)cnc2C)cc1 [Compound I-165, N-(5-{[(4-methoxyphenyl)sulfonyl]amino}-6-methyl-3,4′-bipyridin-2′-yl)acetamide] | 
> 99 | CN(C)S(=O)(=O)c1cc(-c2ccnc(Nc3ncco3)c2)cnc1N [Compound I-166, 6-amino-N,N-dimethyl-2′-(1,3-oxazol-2-ylamino)-3,4′-bipyridine-5-sulfonamide] | 
> 99 | CC(=O)Nc1cc(-c2cnc(C)c(NS(=O)(=O)c3cccc(C(F)(F)F)c3)c2)ccn1 [Compound I-168, N-[6-methyl-5-({[3-(trifluoromethyl)phenyl]sulfonyl}amino)-3,4′-bipyridin-2′-yl]acetamide] | 
> 99 | CC(=O)Nc1cc(-c2cnc(N)c(S(=O)(=O)Nc3ccc(F)cc3F)c2)ccn1 [Compound I-170, N-{6-amino-5-[(2,4-difluorophenyl)sulfamoyl]-3,4′-bipyridin-2′-yl}acetamide] | 
> 99 | COC(=O)Nc1cc(-c2cnc(N)c(S(=O)(=O)N(C)C)c2)ccn1 [Compound I-171, Methyl [6-amino-5-(dimethylsulfamoyl)-3,4′-bipyridin-2′-yl]carbamate] | 
> 99 | CNc1ncc(-c2ccnc(NC(C)=O)c2)cc1S(=O)(=O)N(C(C)C)C(C)C [Compound I-173, N-[5-(diisopropylsulfamoyl)-6-(methylamino)-3,4′-bipyridin-2′-yl]acetamide] | 
> 99 | CC(=O)Nc1cc(-c2cnc3[nH]cc(S(=O)(=O)c4ccccc4)c3c2)ccn1 [Compound I-176, N-{4-[3-(phenylsulfonyl)-1H-pyrrolo[2,3-b]pyridin-5-yl]pyridin-2-yl}acetamide] | 
> 99 | CC(=O)Nc1cc(-c2cnc(C)c(NS(=O)(=O)c3ccc(F)cc3F)c2)c(C)cn1 [Compound I-177, N-(5-{[(2,4-difluorophenyl)sulfonyl]amino}-5′,6-dimethyl-3,4′-bipyridin-2′-yl)acetamide] | 
> 99 | CC(=O)Nc1cc(-c2cnc(N)c(C(=O)Nc3cccc(F)c3F)c2)ccn1 [Compound I-179, 2′-acetamido-6-amino-N-(2,3-difluorophenyl)-3,4′-bipyridine-5-carboxamide] | 
> 99 | COC(=O)Nc1cc(-c2cncc(C(=O)C3CC3)c2)ccn1 [Compound I-180, methyl[5-(cyclopropylcarbonyl)-3,4′-bipyridin-2′-yl]carbamate] | 
> 99 | CC(=O)Nc1cc(-c2cnc(N)c(S(=O)(=O)NCC3CCCCC3)c2)ccn1 [Compound I-183, N-{6-amino-5-[(cyclohexylmethyl)sulfamoyl]-3,4′-bipyridin-2′-yl}acetamide] | 
74 | CC(=O)Nc1cc(-c2cncc(C=O)c2)ccn1 [Compound I-184, N-(5-formyl-3,4′-bipyridin-2′-yl)acetamide] | 
> 99 | CC(=O)Nc1cc(-c2cnc(C)c(NS(=O)(=O)c3ccc(F)cc3)c2)ccn1 [Compound I-185, N-(5-{[(4-fluorophenyl)sulfonyl]amino}-6-methyl-3,4′-bipyridin-2′-yl)acetamide] | 
> 99 | CC(=O)Nc1cc(-c2cnc(N)c(C(=O)NC34CC(C3)C4)c2)ccn1 [Compound I-187, 2′-acetamido-6-amino-N-(bicyclo[1.1.1]pent-1-yl)-3,4′-bipyridine-5-carboxamide] | 
98 | CC(=O)Nc1cc(-c2cncc(/C=C/C(=O)c3ccc(F)cc3)c2)ccn1 [Compound I-188, N-{5-[(1E)-3-(4-fluorophenyl)-3-oxoprop-1-en-1-yl]-3,4′-bipyridin-2′-yl}acetamide] | 
96 | CC(=O)Nc1cc(-c2cncc(S(=O)(=O)NC34CC(C3)C4)c2)ccn1 [Compound I-190, N-[5-(bicyclo[1.1.1]pent-1-ylsulfamoyl)-3,4′-bipyridin-2′-yl]acetamide] | 
77 | CC(=O)Nc1cc(-c2cc(S(C)(=O)=O)c[n+]([O-])c2)ccn1 [Compound I-191, N-{4-[5-(methylsulfonyl)-1-oxidopyridin-3-yl]pyridin-2-yl}acetamide] | 
> 99 | CC(=O)Nc1cc(-c2cnc(C)c(NC(C)=O)c2)ccn1 [Compound I-193, N,N′-(6-methyl-3,4′-bipyridine-2′,5-diyl)diacetamide] | 
